Experiments:
Assay type in all cases: in vivo
[1] = tested on: Monochoria vaginalis; experiment: Test Example 2: herbicidal activity, application during weed generation in submerged conditions; conditions: Eighteenth Table; application herbicide amount 320 g/ha
Method in brief: (§1)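 Alluvial soil in Wagner pots flooded to 4 cm water depth; seeds sown mixed, grown in greenhouse at 25–30 °C. At one- to two-leaf stage, emulsion diluted with water to the set rate (g/ha) was applied to the water surface. Effect scored 0–5 by herbicidal ratio three weeks later.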

[2] = tested on: Echinochloa oryzacola Vasing.; experiment: as above; conditions: Eighteenth Table; application herbicide amount 320 g/ha
Method in brief: as §1

[3] = tested on: Scirpus juncoides; experiment: as above; conditions: Eighteenth Table; application herbicide amount 320 g/ha
Method in brief: as §1

[4] = tested on: directly sowed Oryza sativa; experiment: Test Example 3: effect on crop by application to foliage (Wagner pot, water depth 0.1-0.5 cm); conditions: Nineteenth Table; application to foliage; application herbicide amount 320 g/ha
Method in brief: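 Foliar spray, 14-day-old plants, emulsion diluted to target g/ha; rated 3 wk post-application, 0–5 scale (0 ≤5%, 5 ≥90% herbicidal ratio). Greenhouse 25–30 °C, alluvial soil.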

[5] = tested on: Monochoria vaginalis; experiment: Test Example 1: herbicidal activity, application before weed generation in submerged conditions; conditions: Application herbicide amount 320 g/ha; Seventeenth Table
Method in brief: (§2)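 Alluvial soil in Wagner pots flooded to 4 cm water depth; weed seeds sown and 2.5 leaf stage rice seedlings transplanted. Emulsion diluted in water applied to water surface on sowing day at stated g/ha. Greenhouse 25° C. to 30° C.; effects scored 0–5 by herbicidal ratio after three weeks.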

[6] = tested on: Echinochloa oryzacola Vasing.; experiment: as above; conditions: Application herbicide amount 320 g/ha; Seventeenth Table
Method in brief: as §2

[7] = tested on: Scirpus juncoides; experiment: as above; conditions: Application herbicide amount 320 g/ha; Seventeenth Table
Method in brief: as §2

SMILES | C (Monochoria vaginalis) herbicidal ratio grade [1] | A (Echinochloa oryzicola Vasing.) herbicidal ratio grade [2] | B (Scirpus juncoides) herbicidal ratio grade [3] | b (effect on crop grade) [4] | C: Monochoria vaginalis (herbicidal effect grade) [5] | A: Echinochloa oryzicola Vasing. (herbicidal effect grade) [6] | B: Scirpus juncoides (herbicidal effect grade) [7]
CCOc1nnc2c(C(=O)Nc3nnco3)ccc(C(F)(F)F)n12 [1-112] | 0 (Herbicidal ratio of 5% or less (almost no effect)) | 1 (Herbicidal ratio of 5% or more and less than 20%) | 2 (Herbicidal ratio of 20% or more and less than 40%) | 0 (Herbicidal ratio of 5% or less (almost no effect)) | 2 (Herbicidal ratio of 20% or more and less than 40%) | 3 (Herbicidal ratio of 40% or more and less than 70%) | 3 (Herbicidal ratio of 40% or more and less than 70%)
Cc1nnc(NC(=O)c2ccc(C(F)(F)F)n3c(SCc4ccccc4)nnc23)o1 [1-113] | 0 (Herbicidal ratio of 5% or less (almost no effect)) | 2 (Herbicidal ratio of 20% or more and less than 40%) | 0 (Herbicidal ratio of 5% or less (almost no effect)) | 0 (Herbicidal ratio of 5% or less (almost no effect)) | 2 (Herbicidal ratio of 20% or more and less than 40%) | 4 (Herbicidal ratio of 70% or more and less than 90%) | 3 (Herbicidal ratio of 40% or more and less than 70%)
COc1ccc(CSc2nnc3c(C(=O)Nc4nnc(C)o4)ccc(C(F)(F)F)n23)cc1 [1-114] | 0 (Herbicidal ratio of 5% or less (almost no effect)) | 0 (Herbicidal ratio of 5% or less (almost no effect)) | 1 (Herbicidal ratio of 5% or more and less than 20%) | 0 (Herbicidal ratio of 5% or less (almost no effect)) | 0 (Herbicidal ratio of 5% or less (almost no effect)) | 3 (Herbicidal ratio of 40% or more and less than 70%) | 2 (Herbicidal ratio of 20% or more and less than 40%)
Cc1nnc(NC(=O)c2ccc(C(F)(F)F)n3c(SCC4CCCO4)nnc23)o1 (stereo not shown) [1-116] | 0 (Herbicidal ratio of 5% or less (almost no effect)) | 3 (Herbicidal ratio of 40% or more and less than 70%) | 4 (Herbicidal ratio of 70% or more and less than 90%) | 0 (Herbicidal ratio of 5% or less (almost no effect)) | 2 (Herbicidal ratio of 20% or more and less than 40%) | 5 (Herbicidal ratio of 90% or more (almost completely withered)) | 4 (Herbicidal ratio of 70% or more and less than 90%)
Cc1nnc(NC(=O)c2ccc(C(F)(F)F)n3c(N4CCSCC4)nnc23)o1 [1-118] | 0 (Herbicidal ratio of 5% or less (almost no effect)) | 2 (Herbicidal ratio of 20% or more and less than 40%) | 3 (Herbicidal ratio of 40% or more and less than 70%) | 3 (Herbicidal ratio of 40% or more and less than 70%) | 0 (Herbicidal ratio of 5% or less (almost no effect)) | 3 (Herbicidal ratio of 40% or more and less than 70%) | 2 (Herbicidal ratio of 20% or more and less than 40%)
Cc1nnc(NC(=O)c2ccc(C(F)(F)F)n3c(N4CC[S+]([O-])CC4)nnc23)o1 [1-119] | 0 (Herbicidal ratio of 5% or less (almost no effect)) | 4 (Herbicidal ratio of 70% or more and less than 90%) | 1 (Herbicidal ratio of 5% or more and less than 20%) | 3 (Herbicidal ratio of 40% or more and less than 70%) | 0 (Herbicidal ratio of 5% or less (almost no effect)) | 2 (Herbicidal ratio of 20% or more and less than 40%) | 1 (Herbicidal ratio of 5% or more and less than 20%)
Cc1nnc(NC(=O)c2ccc(C(F)(F)F)n3c(N4CCS(=O)(=O)CC4)nnc23)o1 [1-120] | 2 (Herbicidal ratio of 20% or more and less than 40%) | 3 (Herbicidal ratio of 40% or more and less than 70%) | 3 (Herbicidal ratio of 40% or more and less than 70%) | 3 (Herbicidal ratio of 40% or more and less than 70%) | 1 (Herbicidal ratio of 5% or more and less than 20%) | 5 (Herbicidal ratio of 90% or more (almost completely withered)) | 3 (Herbicidal ratio of 40% or more and less than 70%)
COCCN(C)c1nnc2c(C(=O)Nc3nnco3)ccc(C(F)(F)F)n12 [1-121] | 4 (Herbicidal ratio of 70% or more and less than 90%) | 4 (Herbicidal ratio of 70% or more and less than 90%) | 4 (Herbicidal ratio of 70% or more and less than 90%) | 3 (Herbicidal ratio of 40% or more and less than 70%) | 4 (Herbicidal ratio of 70% or more and less than 90%) | 5 (Herbicidal ratio of 90% or more (almost completely withered)) | 4 (Herbicidal ratio of 70% or more and less than 90%)
CC(C)N(C)c1nnc2c(C(=O)Nc3nnco3)ccc(C(F)(F)F)n12 [1-122] | 3 (Herbicidal ratio of 40% or more and less than 70%) | 4 (Herbicidal ratio of 70% or more and less than 90%) | 3 (Herbicidal ratio of 40% or more and less than 70%) | 3 (Herbicidal ratio of 40% or more and less than 70%) | 5 (Herbicidal ratio of 90% or more (almost completely withered)) | 5 (Herbicidal ratio of 90% or more (almost completely withered)) | 5 (Herbicidal ratio of 90% or more (almost completely withered))
CN(c1nnc2c(C(=O)Nc3nnco3)ccc(C(F)(F)F)n12)C1CCCCC1 [1-123] | 3 (Herbicidal ratio of 40% or more and less than 70%) | 3 (Herbicidal ratio of 40% or more and less than 70%) | 2 (Herbicidal ratio of 20% or more and less than 40%) | 1 (Herbicidal ratio of 5% or more and less than 20%) | 4 (Herbicidal ratio of 70% or more and less than 90%) | 5 (Herbicidal ratio of 90% or more (almost completely withered)) | 4 (Herbicidal ratio of 70% or more and less than 90%)

Source: patent US9708314B2, “Heterocyclic amide compound” (NISSAN CHEMICAL INDUSTRIES, LTD., priority 2013, dated 2017)
